{
  "source": "patent US20220339187A1",
  "about": "“ANTIMICROBIAL PEPTIDE-SELENIUM NANOPARTICLES” (The University of Melbourne, priority 2019, published 2022)",
  "key": {"E. faecalis ATCC 29212": {"tested_on": "E. faecalis ATCC 29212", "assay": "Helium ion microscopy (HIM) of treated bacteria", "type": "cell-based, Enterococcus faecalis", "conditions": "90 min incubation", "experimental": "(§1) The morphologies of bacterial strains methicillin-sensitive S. aureus (MSSA) ATCC 29213, E. faecalis ATCC 29212, E. coli ATCC 25922, A. baumannii 2208 ATCC19606 and K. pneumoniae ATCC 13883 after treatment with Se NPs, Se NP-ε-PL or pure ε-PL were observed using Helium Ion Microscopy (HIM, Zeiss, Germany). The samples were prepared in the following steps. First, 100 μL of 125 μg/mL Se NPs, Se NP-ε-PL or pure ε-PL in PBS solution was added to each well of 96-well microplates, 100 μL pure PBS was used as untreated control. Afterwards, 100 μL MHB with 1.25×10^7/mL bacteria was added to each well. After 90 min incubation, 10 μL of both treated and untreated bacteria was dropped on clean silicon wafers, and they were then dried at 37° C. for 20 min. The dried samples were transferred to a 12-well plate, 2.5% glutaraldehyde was added to each well to fix the bacteria cells for 1 h, then gradient ethanol solution (30%, 50%, 60%, 70%, 80%, 90%, 95% and 100%) was used for dehydration. The prepared samples were dried in the fume hood overnight before use."}, "[1]": {"tested_on": "Escherichia coli (E. coli) ATCC 25922", "assay": "Bacterial growth inhibition test / MIC calculation", "type": "cell-based", "conditions": "MHB, 37° C., growth curves, linear regression, mean ± s.d.", "description": "(§2) The bacterial strains methicillin-sensitive Staphylococcus aureus (S. aureus) ATCC 29213, methicillin-resistant Staphylococcus aureus (MRSA) ATCC 43300, Enterococcus faecalis (E. faecalis) ATCC 29212, Escherichia coli (E. coli) ATCC 25922, Acinetobacter baumannii (A. baumannii) 2208 ATCC19606, Pseudomonas aeruginosa (P. aeruginosa) strain PAO1-LAC ATCC 47085, Klebsiella pneumoniae (K. pneumoniae) ATCC 13883 and multidrug-resistant K. pneumoniae (MDR), were obtained from the culture collection of the Oral Health Cooperative Research Centre, The Melbourne Dental School, University of Melbourne, Australia. Bacteria were cultured in Mueller Hinton Broth (MHB) at 37° C. 50 μL of suspensions with the desired concentrations of Se NPs, Se NP-ε-PL or pure ε-PL in PBS solution was added to each well of 96-well microplates, then 50 μL MHB with 2.5×10^6 bacteria/mL were added into each well. The plate was put into an iEMS microplate reader (Pathtech Pty Ltd, Melbourne, Australia) at a temperature of 37° C. to monitor bacterial growth by measuring the absorbance at wavelength of 630 nm for 24 h. Background absorbance values due to the Se NP solutions were subtracted from the measured absorbance values.\n(§3) The absorbance values from bacteria growth curves at the time when the stationary phase starts (tsps) were taken and calculated as a percentage of the untreated control (Z=OD5/OD6×100%, where OD5 represents absorbance at tsps of experimental groups and OD6 represents the absorbance at tsps of the negative control group; all absorbance values had the culture medium background values subtracted). Concentration-inhibition curves were plotted with the percentages of absorbance, and linear regression analysis was adopted to determine the MIC at which Z becomes zero."}, "[2]": {"tested_on": "methicillin-resistant Staphylococcus aureus (MRSA) ATCC 43300", "assay": "Bacterial growth inhibition test / MIC calculation", "type": "cell-based", "conditions": "MHB, 37° C., growth curves, linear regression, mean ± s.d.", "description": "as §2, §3"}, "[3]": {"tested_on": "Enterococcus faecalis (E. faecalis) ATCC 29212", "assay": "Bacterial growth inhibition test / MIC calculation", "type": "cell-based", "conditions": "MHB, 37° C., growth curves, linear regression, mean ± s.d.", "description": "as §2, §3"}, "[4]": {"tested_on": "Pseudomonas aeruginosa (P. aeruginosa) strain PAO1-LAC ATCC 47085", "assay": "Bacterial growth inhibition test / MIC calculation", "type": "cell-based", "conditions": "MHB, 37° C., growth curves, linear regression, mean ± s.d.", "description": "as §2, §3"}, "[5]": {"tested_on": "Acinetobacter baumannii (A. baumannii) 2208 ATCC19606", "assay": "Bacterial growth inhibition test / MIC calculation", "type": "cell-based", "conditions": "MHB, 37° C., growth curves, linear regression, mean ± s.d.", "description": "as §2, §3"}, "[6]": {"tested_on": "Klebsiella pneumoniae (K. pneumoniae) ATCC 13883", "assay": "Bacterial growth inhibition test / MIC calculation", "type": "cell-based", "conditions": "MHB, 37° C., growth curves, linear regression, mean ± s.d.", "description": "as §2, §3"}, "[7]": {"tested_on": "methicillin-sensitive Staphylococcus aureus (S. aureus) ATCC 29213", "assay": "Bacterial growth inhibition test / MIC calculation", "type": "cell-based", "conditions": "MHB, 37° C., growth curves, linear regression, mean ± s.d.", "description": "as §2, §3"}, "[8]": {"tested_on": "Gram-negative cells (E. coli, A. baumannii and K. pneumoniae)", "assay": "Helium ion microscopy (HIM) of treated bacteria", "type": "cell-based", "conditions": "90 min incubation", "experimental": "as §1"}, "E. coli ATCC 25922": {"tested_on": "E. coli ATCC 25922", "assay": "Adenosine triphosphate (ATP) test (BacTiter-Glo)", "type": "cell-based, Escherichia coli", "conditions": "1 h at 37° C.", "experimental": "(§4) The bacterial strains methicillin-sensitive S. aureus ATCC 29213, E. faecalis ATCC 29212, E. coli ATCC 25922 and K. pneumoniae ATCC 13883 were cultured in MHB at 37° C. 50 μL of Se NPs, Se NP-ε-PL or pure ε-PL in PBS solution was added into each well of 96-well microplates. 50 μL MHB with 2.5×10^6 cells/mL bacteria was then added into each well. After 1h incubation at 37° C., the 96-well microplates were transferred to room temperature for a further 30 min incubation period. 100 μL of BacTiter-Glo™ reagent (Promega, Australia) was added into each well, then mixed on an orbital shaker and incubated for 5 min. The luminescence was recorded using a microplate reader (PerkinElmer 1420 Multilabel Counter VICTOR3).\n(§5) A standard curve was generated by adopting the following steps. 10-fold serial dilutions of ATP from 1 μM to 10 pM in 100 μL MHB were prepared. 100 μL of BacTiter-Glo™ reagent was added into each well, then mixed on an orbital shaker and incubated for 1 min. The luminescence was recorded using a microplate reader (PerkinElmer 1420 Multilabel Counter VICTOR3)."}, "K. pneumoniae ATCC 13883": {"tested_on": "K. pneumoniae ATCC 13883", "assay": "Adenosine triphosphate (ATP) test (BacTiter-Glo)", "type": "cell-based, Klebsiella pneumoniae", "conditions": "1 h at 37° C.", "experimental": "as §4, §5"}},
  "data": [
    {"substance": "ε-poly-L-lysine [ε-PL]", "values": [
      {"measurement": "cell morphology after treatment (HIM)", "setting": "E. faecalis ATCC 29212", "value": "some were dead and distorted"},
      {"measurement": "MIC", "setting": "[1]", "value": "13.2 ± 0.5", "unit": "µg/mL"},
      {"measurement": "MIC", "setting": "[2]", "value": "11.6 ± 2.0", "unit": "µg/mL"},
      {"measurement": "MIC", "setting": "[3]", "value": "27.1 ± 2.2", "unit": "µg/mL"},
      {"measurement": "MIC", "setting": "[4]", "value": "9.5 ± 3.6", "unit": "µg/mL"},
      {"measurement": "MIC", "setting": "[5]", "value": "21.6 ± 7.0", "unit": "µg/mL"},
      {"measurement": "MIC", "setting": "[6]", "value": "12.0 ± 0.6", "unit": "µg/mL"},
      {"measurement": "MIC", "setting": "[7]", "value": "7.5 ± 1.0", "unit": "µg/mL"},
      {"measurement": "cell morphology after treatment (HIM)", "setting": "[8]", "value": "membranes of E. coli, A. baumannii and K. pneumoniae cells were disrupted"},
      {"measurement": "ATP depletion", "setting": "E. coli ATCC 25922", "value": "higher ATP depletion effect than Se NPs"},
      {"measurement": "ATP depletion", "setting": "K. pneumoniae ATCC 13883", "value": "higher ATP depletion effect than Se NPs"}
    ]}
  ]
}
